Reference: patent US20240287070A1, “FUSED HETEROCYCLIC DERIVATIVES” (Janssen Sciences Ireland Unlimited Company, priority 2021, published 2024)

What was measured:
[1] = system: HBV (HepG2.117 cell line, inducibly HBV producing); test: Anti-HBV activity, intracellular HBV DNA by real-time PCR in HepG2.117 cell line; format: cell-based, hepatitis B virus; details: HepG2.117 cells, 3 days of treatment
Procedure, shortened: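 Tet-off HepG2.117; HBV replication induced (no doxycycline); serial compound dilutions, 3 d; intracellular HBV DNA by real-time PCR, HBV-specific primers/probe.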

[2] = system: HepG2 or HepG2.117 cells; test: Cytotoxicity, ATPlite Luminescence Assay; format: cell-based, human; details: 3-days incubation unless marked with *
Procedure, shortened: (§1)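 Compounds were added to cells and incubated 3 or 4 days. ATP content was then measured by luminescence to gauge cell viability.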

[3] = Human liver microsome stability; format: in vitro ADME; details: 1 μM compound, NADPH 1 mM, 37° C., 0-60 min; for HLM Metabolism t1/2: pooled human liver microsomes 0.5 mg/mL; for half-life at 1 μM: human, pooled human liver microsomes, pH 7.4, pooled human liver microsomes 0.5 mg/mL, read-out: HLM Metabolism t1/2
Procedure, shortened: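 Half-life came from elimination rate constant (negative slope of ln compound/internal standard area ratio over time), measured by cassette LC-MS after acetonitrile quench. Human liver microsome reactions, one replicate per compound, were initiated with NADPH (1 mM final) and sampled at six points up to 60 min.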

[4] = Cytotoxicity, ATPlite Luminescence Assay; format: cell-based, human; details: human, HepG2 or HepG2.117 cells, 3-days incubation unless marked with *
Procedure, shortened: as §1

[5] = Hepatitis B virus, HepG2.117, 72 h

## CC(c1ccc(C(C)(C)O)cc1)N1C[C@@H](C)n2nc3c(c2C1=O)CN(C(=O)c1ccc(Cl)c(Cl)c1)[C@H](C)C3 (single isomer, unassigned) [Compound 8B, (3R,7R)-2-(3,4-dichlorobenzoyl)-9-((S*)-1-(4-(2-hydroxypropan-2-yl)phenyl)ethyl)-3,7-dimethyl-1,2,3,4,8,9-hexahydropyrido[4′,3′:3,4]pyrazolo[1,5-a]pyrazin-10(7H)-one]
[1]
  EC50: 0.009 µM
[2]
  CC50: 18.7 µM
[3]
  HLM Metabolism t1/2: >3 h

## C[C@@H]1Cc2nn3c(c2CN1C(=O)c1ccc(Cl)c(C(F)(F)F)c1)C(=O)N([C@H](C)c1ccc([S@]2(=O)=NCCC2)nc1)C[C@H]3C (relative stereo) [Compound 30C, (3R,7R)-2-(4-chloro-3-(trifluoromethyl)benzoyl)-3,7-dimethyl-9-((R*)-1-(6-((S*)-1-oxido-4,5-dihydro-3H-116-isothiazol-1-yl)pyridin-3-yl)ethyl)-1,2,3,4,8,9-hexahydropyrido[4′,3′:3,4]pyrazolo[1,5-a]pyrazin-10(7H)-one]
[1]
  EC50: 0.31 µM
[2]
  CC50: > 50 µM
[3]
  HLM Metabolism t1/2: 0.685 h

## CC(c1ccc(NS(C)(=O)=O)cn1)N1C[C@@H](C)n2nc3c(c2C1=O)CN(C(=O)c1ccc(Cl)c(C(F)(F)F)c1)[C@H](C)C3 (single isomer, unassigned) [Compound 33A, N-(6-((R*)-1-((3R,7R)-2-(4-chloro-3-(trifluoromethyl)benzoyl)-3,7-dimethyl-10-oxo-1,3,4,7,8,10-hexahydropyrido[4′,3′:3,4]pyrazolo[1,5-a]pyrazin-9(2H)-yl)ethyl)pyridin-3-yl)methanesulfonamide]
[1]; [5]
  EC50: 0.036 µM
[4]
  CC50 at 3 days: > 50 µM
[3]
  half-life at 1 μM: > 3 h

## CN=[S@@](C)(=O)c1ccc([C@@H](C)N2C[C@@H](C)n3nc4c(c3C2=O)CN(C(=O)c2ccc(Cl)c(Cl)c2)[C@H](C)C4)cn1 (relative stereo) [Compound 29B, (3R,7R)-2-(3,4-dichlorobenzoyl)-9-((R*)-1-(6-((S*)—N,S-dimethylsulfonimidoyl)pyridin-3-yl)ethyl)-3,7-dimethyl-1,2,3,4,8,9-hexahydropyrido[4′,3′:3,4]pyrazolo[1,5-a]pyrazin-10(7H)-one]
[1]; [5]
  EC50: 0.81 µM
[4]
  CC50 at 3 days: > 50 µM
[3]
  half-life at 1 μM: > 3 h

## C[C@@H]1Cc2nn3c(c2CN1C(=O)c1ccc(Cl)c(C#N)c1)C(=O)N([C@H](C)c1ccc(OC(F)F)cc1)CC3 [Ref 1, reference compound]
[1]; [5]
  EC50: 0.095 µM
[4]
  CC50 at 3 days: > 12.5 µM
[3]
  half-life at 1 μM: 0.583 h

## CNC(=O)C1(Oc2ccc(C(C)N3C[C@@H](C)n4nc5c(c4C3=O)CN(C(=O)c3ccc(Cl)c(C#N)c3)[C@H](C)C5)cc2)CC1 (single isomer, unassigned) [Compound 13A, 1-(4-((R*)-1-((3R,7R)-2-(4-chloro-3-cyanobenzoyl)-3,7-dimethyl-10-oxo-1,2,3,4,7,8-hexahydropyrido[4′,3′:3,4]pyrazolo[1,5-a]pyrazin-9(10H)-yl)ethyl)phenoxy)-N-methylcyclopropanecarboxamide]
[1]
  EC50: 0.037 µM
[4]
  CC50 at 3 days: > 50 µM
[3]
  half-life at 1 μM: 1.88 h

## C[C@@H]1Cc2nn3c(c2CN1C(=O)c1ccc(Cl)c(C#N)c1)C(=O)N([C@H](C)c1ccc(OC(F)F)cc1)C[C@H]3C (relative stereo) [Compound 1C, 2-Chloro-5-((3R,7R*)-9-((R*)-1-(4-(difluoromethoxy)phenyl)ethyl)-3,7-dimethyl-10-oxo-1,2,3,4,7,8,9,10-octahydropyrido[4′,3′:3,4]pyrazolo[1,5-a]pyrazine-2-carbonyl)benzonitrile]
[1]; [5]
  EC50: 0.044 µM
[4]
  CC50 at 3 days: > 50 µM
[3]
  half-life at 1 μM: > 3 h

## CC(c1ccc(C(C)(C)O)nc1)N1C[C@@H](C)n2nc3c(c2C1=O)CN(C(=O)c1cc(C(F)(F)F)c(Cl)cn1)[C@H](C)C3 (single isomer, unassigned) [Compound 58A, (3R,7R)-2-(5-chloro-4-(trifluoromethyl)picolinoyl)-9-((R*)-1-(6-(2-hydroxypropan-2-yl)pyridin-3-yl)ethyl)-3,7-dimethyl-1,2,3,4,8,9-hexahydropyrido[4′,3′:3,4]pyrazolo[1,5-a]pyrazin-10(7H)-one]
[1]
  EC50: > 2.5 µM
[4]
  CC50 at 3 days: > 50 µM
[3]
  half-life at 1 μM: > 3 h

## CC(c1ccc(-n2cncn2)cc1)N1C[C@@H](C)n2nc3c(c2C1=O)CN(C(=O)c1ccc(Cl)c(C#N)c1)[C@H](C)C3 (single isomer, unassigned) [Compound 11A, 5-((3R,7R)-9-((R*)-1-(4-(1H-1,2,4-Triazol-1-yl)phenyl)ethyl)-3,7-dimethyl-10-oxo-1,2,3,4,7,8,9,10-octahydropyrido[4′,3′:3,4]pyrazolo[1,5-a]pyrazine-2-carbonyl)-2-chlorobenzonitrile]
[1]; [5]
  EC50: 0.039 µM
[4]
  CC50 at 3 days: > 50 µM
[3]
  half-life at 1 μM: > 3 h

## CC(c1ccc(S(C)(=O)=O)cc1)N1C[C@@H](C)n2nc3c(c2C1=O)CN(C(=O)c1ccc(Cl)c(Cl)c1)[C@H](C)C3 (single isomer, unassigned) [Compound 15A, (3R,7R)-2-(3,4-dichlorobenzoyl)-3,7-dimethyl-9-((R*)-1-(4-(methylsulfonyl)phenyl)ethyl)-1,2,3,4,8,9-hexahydropyrido[4′,3′:3,4]pyrazolo[1,5-a]pyrazin-10(7H)-one]
[1]
  EC50: 0.063 µM
[4]
  CC50 at 3 days: > 50 µM
[3]
  half-life at 1 μM: > 3 h

## CC(c1cnc(C(C)(C)O)cn1)N1C[C@@H](C)n2nc3c(c2C1=O)CN(C(=O)c1ccc(Cl)c(C(F)(F)F)c1)[C@H](C)C3 (single isomer, unassigned) [Compound 41A, (3R,7R)-2-(4-chloro-3-(trifluoromethyl)benzoyl)-9-((R*)-1-(5-(2-hydroxypropan-2-yl)pyrazin-2-yl)ethyl)-3,7-dimethyl-1,2,3,4,8,9-hexahydropyrido[4′,3′:3,4]pyrazolo[1,5-a]pyrazin-10(7H)-one]
[1]
  EC50: 0.076 µM
[4]
  CC50 at 3 days: > 50 µM
[3]
  half-life at 1 μM: > 3 h

## CN=[S@@](C)(=O)c1ccc([C@H](C)N2C[C@@H](C)n3nc4c(c3C2=O)CN(C(=O)c2ccc(Cl)c(Cl)c2)[C@H](C)C4)cn1 (relative stereo) [Compound 29D, (3R,7R)-2-(3,4-dichlorobenzoyl)-9-((S*)-1-(6-((S*)—N,S-dimethylsulfonimidoyl)pyridin-3-yl)ethyl)-3,7-dimethyl-1,2,3,4,8,9-hexahydropyrido[4′,3′:3,4]pyrazolo[1,5-a]pyrazin-10(7H)-one]
[1]; [5]
  EC50: 0.059 µM
[4]
  CC50 at 3 days: > 50 µM
[3]
  half-life at 1 μM: 1.25 h

## Cc1ncnn1-c1ccc([C@H](C)N2C[C@@H](C)n3nc4c(c3C2=O)CN(C(=O)c2ccc(Cl)c(Cl)c2)[C@H](C)C4)cn1 (relative stereo) [Compound 25B, (3R,7R)-2-(3,4-dichlorobenzoyl)-3,7-dimethyl-9-((S*)-1-(6-(5-methyl-11H-1,2,4-triazol-1-yl)pyridin-3-yl)ethyl)-1,2,3,4,8,9-hexahydropyrido[4′,3′:3,4]pyrazolo[1,5-a]pyrazin-10(7H)-one]
[1]; [5]
  EC50: 0.017 µM
[4]
  CC50 at 3 days: > 50 µM
[3]
  half-life at 1 μM: 1.49 h

## CC(c1ccc(C(C)(C)O)nc1)N1C[C@@H](C)n2nc3c(c2C1=O)CN(C(=O)c1cc(F)c(Cl)c(F)c1)[C@H](C)C3 (single isomer, unassigned) [Compound 60A, (3R,7R)-2-(4-chloro-3,5-difluorobenzoyl)-9-((R*)-1-(6-(2-hydroxypropan-2-yl)pyridin-3-yl)ethyl)-3,7-dimethyl-1,2,3,4,8,9-hexahydropyrido[4′,3′:3,4]pyrazolo[1,5-a]pyrazin-10(7H)-one]
[1]
  EC50: 0.3 µM
[4]
  CC50 at 3 days: > 50 µM
[3]
  half-life at 1 μM: > 3 h

## C[C@@H]1Cc2nn3c(c2CN1C(=O)c1ccc(Cl)c(C(F)(F)F)c1)C(=O)N([C@H](C)c1ccc([S@@](C)(=N)=O)cc1)C[C@H]3C (relative stereo) [Compound 19B, (3R,7R)-2-(4-chloro-3-(trifluoromethyl)benzoyl)-3,7-dimethyl-9-((R*)-1-(4-((S*)—S-methylsulfonimidoyl)phenyl)ethyl)-1,2,3,4,8,9-hexahydropyrido[4′,3′:3,4]pyrazolo[1,5-a]pyrazin-10(7H)-one]
[1]; [5]
  EC50: 0.015 µM
[4]
  CC50 at 3 days: > 50 µM
[3]
  half-life at 1 μM: > 3 h

## CN=[S@](C)(=O)c1ccc([C@@H](C)N2C[C@@H](C)n3nc4c(c3C2=O)CN(C(=O)c2ccc(Cl)c(Cl)c2)[C@H](C)C4)cn1 (relative stereo) [Compound 29A, (3R,7R)-2-(3,4-dichlorobenzoyl)-9-((R*)-1-(6-((R*)—N,S-dimethylsulfonimidoyl)pyridin-3-yl)ethyl)-3,7-dimethyl-1,2,3,4,8,9-hexahydropyrido[4′,3′:3,4]pyrazolo[1,5-a]pyrazin-10(7H)-one]
[1]; [5]
  EC50: 0.74 µM
[4]
  CC50 at 3 days: > 50 µM
[3]
  half-life at 1 μM: 1.7 h

## CC(c1ccc(C(C)(C)O)nc1)N1C[C@@H](C)n2nc3c(c2C1=O)CN(C(=O)c1cc(Cl)c(Cl)cn1)[C@H](C)C3 (single isomer, unassigned) [Compound 57A, (3R,7R)-2-(4,5-dichloropicolinoyl)-9-((R*)-1-(6-(2-hydroxypropan-2-yl)pyridin-3-yl)ethyl)-3,7-dimethyl-1,2,3,4,8,9-hexahydropyrido[4′,3′:3,4]pyrazolo[1,5-a]pyrazin-10(7H)-one]
[1]
  EC50: > 2.5 µM
[4]
  CC50 at 3 days: > 50 µM
[3]
  half-life at 1 μM: > 3 h
